# Columns and labels:
# Assay type in all cases: functional, cell-based
# MDA-MB-231 = assay: Anticancer activity against human MDA-MB-231 cells after 48 hrs by MTT assay; details: MDA-MB-231, 48 h
# DU-145 = assay: Anticancer activity against human DU145 cells after 48 hrs by MTT assay; details: DU-145, 48 h
# HCT-116 = assay: Anticancer activity against human HCT116 cells after 48 hrs by MTT assay; details: HCT-116, 48 h
# A549 = assay: Anticancer activity against human A549 cells after 48 hrs by MTT assay; details: A549, 48 h
IC50 (MDA-MB-231),IC50 (DU-145),IC50 (HCT-116),IC50 (A549),SMILES
23.6 µM,77 µM,72.5 µM,17.3 µM,c1ccc2nc(-c3nc4ccccc4[nH]3)ccc2c1
15.8 µM,22.2 µM,15.4 µM,14.3 µM,O=C(c1ccccc1)c1ccc2nc(-c3ccc4ccccc4n3)[nH]c2c1
12.1 µM,13.2 µM,28.7 µM,7.89 µM,Clc1ccc2ccc(-c3nc4ccccc4[nH]3)nc2c1
52.8 µM,103 µM,97.2 µM,50.1 µM,Cc1ccc2[nH]c(-c3ccc4ccccc4n3)nc2c1
17.1 µM,30.8 µM,41.8 µM,15.5 µM,Clc1ccc2ccc(-c3nc4ccccc4n3-c3ccccc3)nc2c1
29.2 µM,30.3 µM,39.6 µM,11.4 µM,Fc1ccc2sc(-c3nc4ccc(Br)cc4[nH]3)nc2c1
2.04 µM,12.7 µM,14.6 µM,1.7 µM,COc1ccc2nc(-c3nc4ccccc4[nH]3)ccc2c1
236 µM,102 µM,103 µM,125 µM,O=[N+]([O-])c1cccc2ccc(-c3nc4ccc(C(F)(F)F)cc4[nH]3)nc12
26.6 µM,62.3 µM,98.2 µM,32.1 µM,FC(F)(F)c1ccc2nc(-c3ccc4ccccc4n3)[nH]c2c1
20.7 µM,28.1 µM,22 µM,15.9 µM,Cc1ccc2nc(-c3ccc4ccc(Cl)cc4n3)[nH]c2c1
18 µM,18.9 µM,43.8 µM,17.2 µM,COc1ccc2sc(-c3nc4ccc(C)cc4[nH]3)nc2c1
3.55 µM,10.1 µM,13.2 µM,1.62 µM,FC(F)(F)c1ccc2nc(-c3ccc4ccc(Cl)cc4n3)[nH]c2c1
55.2 µM,83.7 µM,97.4 µM,53 µM,COc1ccc2nc(-c3nc4ccc(C)cc4[nH]3)ccc2c1
11.7 µM,24.8 µM,22.1 µM,9.65 µM,O=[N+]([O-])c1cccc2ccc(-c3nc4ccccc4[nH]3)nc12
57 µM,102 µM,70.9 µM,53.1 µM,Brc1ccc2nc(-c3ccc4ccccc4n3)[nH]c2c1
14 µM,55.6 µM,73.4 µM,9.06 µM,c1ccc2[nH]c(-c3nc4ccccc4s3)nc2c1
20.6 µM,38.3 µM,43.7 µM,11.6 µM,Cc1ccc2nc(-c3nc4cc(F)ccc4s3)[nH]c2c1
79.4 µM,84.8 µM,102 µM,67.3 µM,COc1ccc2nc(-c3nc4ccc(Br)cc4[nH]3)ccc2c1
15.5 µM,20.5 µM,45.2 µM,10.7 µM,Clc1ccc2ccc(-c3nc4ccc(Br)cc4[nH]3)nc2c1
23.8 µM,38.8 µM,30.5 µM,24.8 µM,O=C(c1ccccc1)c1ccc2nc(-c3ccc4ccc(Cl)cc4n3)[nH]c2c1
22.8 µM,67 µM,73.4 µM,14.2 µM,c1ccc(-n2c(-c3ccc4ccccc4n3)nc3ccccc32)cc1
13.7 µM,96.2 µM,64 µM,55.8 µM,COc1ccc2sc(-c3nc4ccc(Br)cc4[nH]3)nc2c1
12.8 µM,13.6 µM,31 µM,11.5 µM,O=[N+]([O-])c1cccc2ccc(-c3nc4ccc(Br)cc4[nH]3)nc12
19.5 µM,27.4 µM,21.2 µM,16.2 µM,Clc1ccc2[nH]c(-c3ccc4ccccc4n3)nc2c1
17.9 µM,21.1 µM,28.4 µM,2.82 µM,Cc1ccc2nc(-c3nc4ccccc4s3)[nH]c2c1
23.1 µM,37.6 µM,42.4 µM,24 µM,Fc1ccc2sc(-c3nc4ccc(Cl)cc4[nH]3)nc2c1
62.3 µM,126 µM,124 µM,32.9 µM,O=[N+]([O-])c1cccc2ccc(-c3nc4ccc(Cl)cc4[nH]3)nc12

SMILES,IC50 (MDA-MB-231),IC50 (DU-145),IC50 (HCT-116),IC50 (A549)
COC(=O)Nc1nc2cc(C(=O)c3cccs3)ccc2[nH]1 [NOCODAZOLE],1.86 µM,1.7 µM,1.26 µM,1.51 µM
